Assays:
[1] = Metabolic Stability in Guinea Pig Liver S9; format: in vitro ADME; conditions: guinea pig liver S9, 10 μM initial, 37° C.
Experimental: (§1) Evaluation of metabolism in human and guinea pig liver
(§2) One skilled in the art can determine the metabolic stability for the compounds of the present invention by determining the rate of disappearance of the test compound in vitro in liver extracts. Metabolic stability is inversely related to the rate of metabolism which can be evaluated by determining the rate of disappearance of the test compounds during the initial linear phase of this assay.
(§3) This method is carried out using either S9 or S10 liver supernatant obtained from either guinea pig or human liver. Guinea pig liver S9 can be purchased from Vitro Technologies, Baltimore, Md. and human liver S9 can be purchased from IIAM, Eaton Pa. Both guinea pig and human S10 supernatant can be prepared as follows: Combine weighed liver (fresh or stored at -80° C. until use) and 1.15% aqueous potassium chloride solution (10-15 mL) and homogenize using a PCU Poltron from Kinematics of Switzerland or equivalent. Combine the homogenate with 1.15% aqueous potassium chloride solution, sufficient so that 3 mL of solution (total) is used per […] of liver, and mix. Store the above homogenate on ice at all times prior to use and at -80° C. for long term storage.
(§4) Centrifuge a 20 mL volume of the homogenate at 12,500 rpm (10,000×gravity) at 3° C. After 20 minutes, remove the cover of white lipid protein, if present, and transfer the supernatant to a clean centrifuge tube. Centrifuge the supernatant at 12,500 (10,000×gravity) at 3° C. for 20 minutes before transfer to a clean storage vessel to give the S10 supernatant. Store the S10 supernatant on ice or at -80° C. for long term storage.
(§5) Prepare a stock solution of each test compound in methanol, such that 0.1 mL of the stock solution when spiked into 16 mL of incubation mixture yields an initial concentration of 10 μM of the test compound. Using this method the methanol content of the final incubation mixture will not exceed 1%.
(§6) Prepare the incubation mixture by combining in an incubation beaker S9 or S10 supernatant (4 mL); an aqueous solution containing 1.1 mM NADP, […] (4 units/2 mL)(0.32 mL); and an aqueous 0.1M dipotassium monohydrogen phosphate solution (7.58 mL). Incubate the test compound by adding 0.1 mL of the stock solution of test compound to an incubation mixture, placed in a shaking water bath at 37° C.
(§7) To determine the rate of disappearance of test compounds in this assay, remove triplicate aliquots (0.5 mL) from the incubation beaker at 1, 3, 5, 10, 15, 30, and 60 minutes. Freeze all aliquots in a hexane/dry-ice slurry to instantly deactivate the enzymes. Store at -70° C. until assayed. The concentration of test compound in each aliquot is determined by HPLC after preparation and as compared to a standard concentration of test compound, such preparations and determinations are well known and appreciated in the art. The rate of disappearance can be determined from the slope of the initial linear phase of this assay by graphing the change in concentration of test compound vs. time.
(§8) Calibration standards for Compound A were prepared as follows: dissolve 10 mg of Compound A (free base) in methanol (10 mL) to give a 1 mg/mL stock solution. Use acetonitrile to dilute 1 mL of stock solution to 10 mL to give a 100 μg/mL spiking standard and serially dilute the 100 μg/mL solution with acetonitrile to give spiking standards having concentrations of 50, 25, 10, 5, 2.5, and 1.0 μg/mL. Calibration standards having concentrations of 10,000; 5,000; 2,500; 1,000; 500; 250; and 100 ng/mL are prepared in duplicated by adding 20 μL of each spiking standards to 0.2 mL of control S9 supernatant. Blanks and samples each receive 20μL of acetonitrile. […]

[2] = Metabolic Stability in Human Liver S9; format: in vitro ADME; conditions: human liver S9, 10 μM initial, 37° C.
Experimental: as §1, §2, §3, §4, §5, §6, §7, §8

## COc1cc(C(=O)N2CCC(CCN3CCC(C(N)=O)(c4ccccc4)CC3)(c3ccc(Cl)c(Cl)c3)C2)cc(OC)c1OC.Cl (single isomer, unassigned; (+)) [Compound C, (+)-1-(2-(3-(3,4-dichloro-phenyl)-1-(3,4,5-trimethoxy-benzoyl)-pyrrolidin-3-yl)-ethyl)-4-phenyl-piperidine-4-carboxylic acid amide hydrochloride]
[1]; 1 min
  concentration: 6300 ng/mL
[1]; 3 min
  concentration: 6000 ng/mL
[1]; 5 min
  concentration: 5300 ng/mL
[1]; 10 min
  concentration: 4800 ng/mL
[1]; 15 min
  concentration: 4000 ng/mL
[1]; 30 min
  concentration: 3800 ng/mL
[1]; 60 min
  concentration: 3500 ng/mL
[2]; 1 min
  concentration: 6200 ng/mL
[2]; 3 min
  concentration: 5600 ng/mL
[2]; 5 min
  concentration: 5900 ng/mL
[2]; 10 min
  concentration: 5200 ng/mL
[2]; 15 min
  concentration: 4500 ng/mL
[2]; 30 min
  concentration: 3200 ng/mL
[2]; 60 min
  concentration: 2500 ng/mL

— patent US5861417A, “Heterocyclic substituted pyrrolidine amide derivatives” (Hoechst Marion Roussel, Inc., priority 1997, dated 1999)
